Assay results: paper PMC7918738, “Microtubule Destabilizing Sulfonamides as an Alternative to Taxane-Based Chemotherapy” (International Journal of Molecular Sciences, 2021)
Read-outs that look alike come from different tables or passages of the source.

Columns and labels:
[1] = test system: HT-29 (colon adenocarcinoma); experiment: Antiproliferative activity against CA-4-resistant HT-29 with or without verapamil (sensitivity to MDR pumps, XTT); type: cell-based, human; conditions: for IC50: Homo sapiens, read-out: Antiproliferative Activity IC50 HT-29; for Difference between pairs of HT-29 IC50 values in the presence or absence of verapamil: 10 µM verapamil, up to two-fold change counted as not significant
From the text: Detecting changes in drug potency when inhibiting MDR-mediated efflux reflect that these transporters reduce the intracellular drug concentration. HT-29 has been reported to express moderate levels of MDR1, accounting for a resistant phenotype. A comparison of the antiproliferative IC50 values of each MDS in the presence or absence of verapamil provides an estimate of the susceptibility of each compound to efflux pumps.
(§1) MCF7 (human breast carcinoma), SKOV-3 (human ovarian carcinoma), OVCAR-3 (human ovarian carcinoma), OVCAR-8 (human ovarian carcinoma), and HeLa (human cervical carcinoma) cell lines were cultured in Dulbecco’s Modified Eagle’s Medium (DMEM) (Gibco, Thermo Fischer Scientific) containing 10% (v/v) heat-inactivated fetal bovine serum (HIFBS) (Lonza-Cambrex, Karlskoga, Sweden), 2 mM L-glutamine (Lonza-Cambrex, Karlskoga, Sweden), 100 μg/mL streptomycin, and 100 IU/mL penicillin (Lonza-Cambrex) at 37 °C in humidified 95% air and 5% CO2. HT-29 (human colon carcinoma), IGROV-1 (human ovarian carcinoma), and A2780 (human ovarian carcinoma) cell lines were cultured in RPMI 1640 medium (Gibco, Thermo Fischer Scientific) supplemented with 10% HIFBS, 100 μg/mL streptomycin, and 100 IU/mL penicillin at 37 °C in humidified 95% air and 5% CO2 atmosphere. The presence of mycoplasma was routinely checked with MycoAlert kit (Lonza-Cambrex) and only mycoplasma-free cells were used in the experiments. Ovarian tumor cell lines were originally acquired from Dr Atanasio Pandiella from Centro de Investigación del Cáncer (CIC), Salamanca, Spain. HeLa, HT-29 and MCF7 tumor cell lines were provided by Dr Faustino Mollinedo from Centro de Investigaciones Biológicas Margarita Salas, Madrid, Spain.
MCF7, HeLa, and HT-29 cell proliferation, when treated with the corresponding compounds, were determined using the XTT (sodium 3’-[1(phenylaminocarbonyl)-3,4-tetrazolium]-bis(4-methoxy-6-nitro)-benzenesulfonic acid hydrate) cell proliferation kit (Roche Molecular Biochemicals, Mannheim, Germany). A freshly prepared mixture of XTT labeling reagent with 0.02% (v/v) PMS (N-methyl-dibenzopyrazine methyl sulfate) electron coupling reagent was added to cells (50 µL/well in 96-well plates, total volume of 160 µL/well). Cells were incubated under standard culture conditions for 4 h (MCF7 and HeLa) or 6 h (HT-29). The absorbance of the formazan product generated was measured at 450 nm using a multi-well plate reader. SKOV-3, OVCAR-3, OVCAR-8, IGROV-1, A-2780 cell proliferation, when treated with the corresponding compound, were determined using MTT (3-(4,5-dimethylthiazol-2-yl)-2,5-diphenyl-2H-tetrazolium bromide) (Sigma-Aldrich, St. Louis, MO, USA). MTT in Phosphate Buffer Saline (PBS) (5 mg/ml) was added to cells (110 µL/well in 24-well plates, total volume of 1110 µL/well). After 1 hour of incubation, the medium was aspirated, and formazan violet crystals were dissolved in dimethyl sulfoxide (DMSO) (500 µL/well). Absorbance was measured at 570 nm in a plate reader (Ultra Evolution, Tecan, Männedorf, Suiza). To determine cell viability, cells in exponential growth phase were seeded (100 µL/well in 96-well plates and 1000 µL/well in 24-well plates) with appropriate cell line concentration (1.5·10^4 cells/mL for MCF7 and HeLa, 3·10^4 cells/mL for HT-29, and 1·10^4 cells/mL for SKOV-3, OVCAR-3, OVCAR-8, IGROV-1, and A-2780) in complete RPMI 1640 or DMEM medium at 37°C and 5% CO2 atmosphere. After 24 h incubation, to allow cells to attach to the plates, all compounds were added at 1 µM concentration and the effect on the proliferation was evaluated 72 h post-treatment. […] Non-linear curves fitting the experimental data were carried out for each compound. Compounds were dissolved in DMSO and the final solvent concentrations never exceeded 0.5% (v/v). The control wells included […] with 0.5% (v/v) DMSO and the positive control. 10 µM verapamil was included as a control for the HT-29 cell line.

[2] = test system: MCF7 (breast adenocarcinoma); experiment: Antiproliferative activity against MCF7 (XTT colorimetric method); type: cell-based; conditions: Homo sapiens, 72 h treatment
Description: The in vitro antiproliferative activity of MDS at 1 µM after 72 h treatments was evaluated by a colorimetric method against the human tumor cell lines HeLa (cervix epithelioid carcinoma) and MCF7 (breast adenocarcinoma). Compounds showing more than 40% inhibition at 1 µM in at least three independent assays were evaluated in a range of concentrations between 0.1 nM and 10 µM for the determination of half-maximal inhibitory concentrations (IC50) (Table 1). Paclitaxel, CA-4, and ABT-751 were used as references.
as §1
MCF7, HeLa, and HT-29 cell proliferation, when treated with the corresponding compounds, were determined using the XTT (sodium 3’-[1(phenylaminocarbonyl)-3,4-tetrazolium]-bis(4-methoxy-6-nitro)-benzenesulfonic acid hydrate) cell proliferation kit (Roche Molecular Biochemicals, Mannheim, Germany). A freshly prepared mixture of XTT labeling reagent with 0.02% (v/v) PMS (N-methyl-dibenzopyrazine methyl sulfate) electron coupling reagent was added to cells (50 µL/well in 96-well plates, total volume of 160 µL/well). Cells were incubated under standard culture conditions for 4 h (MCF7 and HeLa) or 6 h (HT-29). The absorbance of the formazan product generated was measured at 450 nm using a multi-well plate reader. SKOV-3, OVCAR-3, OVCAR-8, IGROV-1, A-2780 cell proliferation, when treated with the corresponding compound, were determined using MTT (3-(4,5-dimethylthiazol-2-yl)-2,5-diphenyl-2H-tetrazolium bromide) (Sigma-Aldrich, St. Louis, MO, USA). MTT in Phosphate Buffer Saline (PBS) (5 mg/ml) was added to cells (110 µL/well in 24-well plates, total volume of 1110 µL/well). After 1 hour of incubation, the medium was aspirated, and formazan violet crystals were dissolved in dimethyl sulfoxide (DMSO) (500 µL/well). Absorbance was measured at 570 nm in a plate reader (Ultra Evolution, Tecan, Männedorf, Suiza). To determine cell viability, cells in exponential growth phase were seeded (100 µL/well in 96-well plates and 1000 µL/well in 24-well plates) with appropriate cell line concentration (1.5·10^4 cells/mL for MCF7 and HeLa, 3·10^4 cells/mL for HT-29, and 1·10^4 cells/mL for SKOV-3, OVCAR-3, OVCAR-8, IGROV-1, and A-2780) in complete RPMI 1640 or DMEM medium at 37°C and 5% CO2 atmosphere. After 24 h incubation, to allow cells to attach to the plates, all compounds were added at 1 µM concentration and the effect on the proliferation was evaluated 72 h post-treatment. Compounds showing antiproliferative effects at tested concentration were selected for IC50 calculation (50% inhibitory concentration with respect to the untreated controls) from 10^−5 to 10^−10 M concentration. Non-linear curves fitting the experimental data were carried out for each compound. […]

[3] = HT-29, 72 h, XTT, without verapamil

IC50 [1, 3] [nM]	IC50 [2] [nM]	Difference between pairs of HT-29 IC50 values in the presence or absence of verapamil [1]	SMILES	IC50 ([1]; HT-29, 72 h) [nM]
> 1000	> 1000	–	COc1cc(NS(=O)(=O)c2ccc(NC=O)cc2)cc(OC)c1OC [Compound 36]	–
807	> 1000	–	CNc1ccc(S(=O)(=O)Nc2cc(OC)c(OC)c(OC)c2)cc1 [Compound 37]	–
59	61	no significant differences	CNc1ccc(S(=O)(=O)N(C)c2cc(OC)c(OC)c(OC)c2)cc1 [Compound 38]	–
> 1000	> 1000	–	COc1ccc(S(=O)(=O)Nc2cc(OC)c(OC)c(OC)c2)cc1[N+](=O)[O-] [Compound 40]	–
277	96	–	COc1ccc(S(=O)(=O)Nc2cc(OC)c(OC)c(OC)c2)cc1N [Compound 41]	–
81	26	no significant differences	COc1ccc(S(=O)(=O)N(C)c2cc(OC)c(OC)c(OC)c2)cc1N [Compound 42]	–
63	14	–	CCN(c1cc(OC)c(OC)c(OC)c1)S(=O)(=O)c1ccc(OC)c(N)c1 [Compound 43]	–
61	8	–	COc1ccc(S(=O)(=O)N(CC#N)c2cc(OC)c(OC)c(OC)c2)cc1N [Compound 44]	–
300	48	no significant differences	COc1ccc(S(=O)(=O)N(Cc2ccccc2)c2cc(OC)c(OC)c(OC)c2)cc1N [Compound 45]	–
113	48	–	CCOC(=O)CNc1cc(S(=O)(=O)N(C)c2cc(OC)c(OC)c(OC)c2)ccc1OC [Compound 46]	–
> 1000	> 1000	–	CCOC(=O)CNc1cc(S(=O)(=O)N(CC(=O)OCC)c2cc(OC)c(OC)c(OC)c2)ccc1OC [Compound 47]	–
> 1000	1190	–	CNc1cc(S(=O)(=O)N(C)c2cc(OC)c(OC)c(OC)c2)ccc1OC [Compound 48a]	–

SMILES	IC50 [1, 3] [nM]	IC50 [2] [nM]	Difference between pairs of HT-29 IC50 values in the presence or absence of verapamil [1]	IC50 ([1]; HT-29, 72 h) [nM]
COc1ccc(S(=O)(=O)N(C)c2cc(OC)c(OC)c(OC)c2)cc1N(C)C [Compound 48b]	–	> 1000	–	> 1000
